According to patent US6147121A, “Skin toning by stimulating collagen synthesis/proliferation of dermal fibroblasts” (Societe L'Oreal S.A., priority 1998, dated 2000):

What was measured:
[1] = tested on: normal human dermal fibroblast cultures; experiment: effect of resveratrol on the synthesis of collagen: incorporation of tritiated proline into newly synthesized proteins of normal human dermal fibroblast cultures; format: cell-based
Experimental: (§1) Investigating the effect of resveratrol on the synthesis of collagen: This study was carried out by measuring the incorporation of radioactive proline into the proteins newly synthesized by normal human dermal fibroblast cultures. These newly synthesized proteins were predominantly collagen fibers. The fibroblast cultures were conducted according to conventional cell culture techniques, namely, in MEM/M199 medium marketed by Gibco, in the presence of sodium bicarbonate (1.87 mg/ml), of L-glutamine (2 mM), of penicillin (50 IU/ml) and of 10% fetal calf serum (Gibco). The test was carried out on 80% confluent cell cultures in a 24-well plate. […] The labelling with tritiated proline (L-[2,3-^3 H]proline marketed by Amersham, 33 mCi/ml) was conducted for 24 hours. The amount of tritiated proline incorporated was measured at the end of the test by acid precipitation of the proteins on filters and liquid scintillation counting. The results were evaluated relative to a control consisting of cells which were not treated with resveratrol. A positive control (vitamin C at 20 mg/ml) known to stimulate the synthesis of collagen was included in the test as a reference.

[2] = tested on: normal human dermal fibroblast cultures; experiment: effect of resveratrol on the proliferation of the fibroblasts of the dermis: incorporation of radioactive thymidine into normal human dermal fibroblast cultures; format: cell-based; conditions: for tritiated thymidine incorporated (cpm): 48 hours contact, labelling 24 hours, not treated 13,649 cpm
Experimental: Investigating the effect of resveratrol on the proliferation of the fibroblasts of the dermis:
This study was carried out by measuring the incorporation of radioactive thymidine into normal human dermal fibroblast cultures.
The fibroblast cultures were conducted according to conventional cell culture techniques, namely in MEM/M199 medium marketed by Gibco, in the presence of sodium bicarbonate (1.87 mg/ml), of L-glutamine (2 mM), of penicillin (50 IU/ml) and of 10% fetal calf serum (Gibco).
The test was carried out on 80% confluent cell cultures in a 24-well plate. Resveratrol, at the concentration of 1.25 mM and 5 mM, was placed in contact with the cells for 48 hours. The labelling with tritiated thymidine ([methyl-^3 H]thymidine marketed by Amersham, 82 Ci/mmol) was conducted for 24 hours.
The amount of tritiated thymidine incorporated was measured at the end of the test by acid precipitation of the proteins on filters and liquid scintillation counting.
The results were evaluated relative to a control consisting of cells which were not treated with resveratrol.
A positive control (fetal calf serum at 20%) known to stimulate the […] was included in the test as a reference.

[3] = tested on: interstitial collagenase (A2058 cells); experiment: effect of resveratrol on the production of interstitial collagenase in a culture of A2058 cells (Elisa); format: cell-based, human
Experimental: Effect of resveratrol on the expression of the collagenases:
The effect of resveratrol on the production of interstitial collagenase was evaluated in a model of culture of A2058 cells (derived from human malanomas: Templeton N. S. et al., Cancer Res., SO.- 54315431(1990)).
The cells were incubated in a phenol red-free MEM medium containing amino acids at the concentration of 2 mM, sodium pyruvate at the concentration of 1 mM and 10% charcoal-treated calf serum. They were then cultured at the density of 20,000 cells per well in the 24 wells of a multiwell plate.
Twenty-four hours after cultering, the cells were contacted with resveratrol. The production of interstitial collagenase was evaluated 96 hours later in the culture medium. This was carried out with the aid of an Elisa kit (Biotrack human MMPL; Amersham).
The resveratrol was tested at the concentrations 2×10^-7 M and 2×10^-6 M.
The results, expressed as percentages, represent the reduction in the production of interstitial collagenase compared with the control, namely, compared with a culture carried out under the same conditions in the absence of resveratrol.

[4] = tested on: normal human dermal fibroblast cultures; experiment: effect of resveratrol on the synthesis of collagen: incorporation of tritiated proline into newly synthesized proteins of normal human dermal fibroblast cultures; format: cell-based; design: unit of the concentration uncertain; conditions: 48 hours contact, labelling 24 hours, not treated 22,528 cpm
Experimental: as §1

[5] = tested on: normal human dermal fibroblast cultures; experiment: as above; format: cell-based; design: dose or concentration left out as unconfirmed; conditions: positive control; not treated 22,528 cpm
Experimental: as §1

**Q.** Which activity at 1250 µM ([1]; Homo sapiens, Fibroblast, 1.25 mM, 48 hours, not treated = 100, p <0.01, read-out: tritiated proline incorporated, % relative to not treated control) does the source give for `Oc1ccc(C=Cc2cc(O)cc(O)c2)cc1` [Resveratrol, 3,4',5-trihydroxystilbene] here?
**A.** 121%

**Q.** And the activity at 5000 µM ([1]; Homo sapiens, Fibroblast, 5.00 mM, 48 hours, not treated = 100, p <0.05, read-out: tritiated proline incorporated, % relative to not treated control)?
**A.** 114%

**Q.** And the “incorporation of proline into collagen (in words)” value ([1]; conclusion from Table I)?
**A.** substantially stimulated the incorporation of proline into collagen

**Q.** And the “tritiated thymidine incorporated (cpm)” value ([2]; 1.25 mM)?
**A.** 15,055 cpm

**Q.** What about the “tritiated thymidine incorporated (cpm)” value ([2]; 5.00 mM) of the same compound?
**A.** 19,229 cpm

**Q.** What about the activity at 1250 µM ([2]; Homo sapiens, Fibroblast, 1.25 mM, 48 hours, not treated = 100, p <0.05, read-out: tritiated thymidine incorporated, % relative to not treated control) of the same compound?
**A.** 110%

**Q.** And the activity at 5000 µM ([2]; Homo sapiens, Fibroblast, 5.00 mM, 48 hours, not treated = 100, p <0.01, read-out: tritiated thymidine incorporated, % relative to not treated control)?
**A.** 141%

**Q.** What about the inhibition at 0.2 µM ([3]; Homo sapiens, 0.2 μM, 96 hours, A2058 cells, read-out: % inhibition (reduction in the production of interstitial collagenase compared with the control)) of the same compound?
**A.** 14%

**Q.** And the inhibition at 2 µM ([3]; Homo sapiens, 2 μM, 96 hours, A2058 cells, read-out: % inhibition (reduction in the production of interstitial collagenase compared with the control))?
**A.** 57%

**Q.** And the “production of interstitial collagenase by A2058 cells (in words)” value ([3]; conclusion from Table III)?
**A.** reduced the production of interstitial collegenase by the A 2058 cells and this in a dose-dependent manner

**Q.** And the “tritiated proline incorporated (cpm)” value ([4]; 1.25 (unit uncertain))?
**A.** 27,164 cpm

**Q.** What about the “tritiated proline incorporated (cpm)” value ([4]; 5.00 (unit uncertain)) of the same compound?
**A.** 25,769 cpm

**Q.** With `O=C1O[C@H]([C@@H](O)CO)C(O)=C1O` [Vitamin C, reference compound] as the compound, how does the activity at 20000 µg/mL ([1]; Homo sapiens, Fibroblast, 48 h, positive control, 20 mg/ml, not treated = 100, p <0.01, read-out: tritiated proline incorporated, % relative to not treated control) read?
**A.** 162%

**Q.** What about the “tritiated proline incorporated (cpm)” value [5] of the same compound?
**A.** 36,431 cpm
